According to patent US7351739B2, “Bioactive compounds and methods of uses thereof” (Wellgen, Inc., priority 2004, dated 2008):

Legend:
[1] = system: JB6 C141 cells; test: Anchorage-independent (soft agar) neoplastic cell transformation assay, EGF-exposed; assay type: cell-based, mouse
Procedure: (§1) Cell cultures: The JB6 mouse epidermal cell line Cl 41 or its stable AP-1 luciferase reporter plasmid stable transfectant was maintained with Eagles minimal essential medium (MEM), containing 5% fetal bovine serum (FBS), 2 mM L-glutamine and […] gentamicin or 50 IU/ml penicillin G and 50 μg/ml streptomycin, in an atmosphere of 95% air-5% CO2 at 37° C. Cells were seeded at a density of 5×10^4 cells/ml and cultured for 24 h. The cells were serum-starved in 0.1% FBS in MEM for 36 h to synchronize the cell cycle into G0 phase. The cells were treated with various concentrations of the test compound or distilled water (as a control) for 1 h, followed, by addition of MTS assay buffer for toxicity studies or 12-O-tetradecanoylphorbol-13-acetate (TPA) or epidermal growth factor (EGF at 10-20 ng/ml) to determine AP-1 activation. Some cells were used for cell transformation assays as described below. For human phenotype expression assays, human colon HCT116, human lung cancer HT460, human skin melanoma SK-MEL-28 or human ovarian SK-OV3 cells were cultured in their respective medium and harvested for soft agar assays.
(§2) Anchorage-independent transfornation assay: Inhibition of test compounds on TPA or EGF-induced cell transformation or human tumor phenotype expression was investigated under anchorage independent conditions. Samples of 1×10^4 cells were exposed to TPA (20 ng/ml) or EGF (20 ng/ml) with or without different concentrations of test compound inl ml 0.33% basal medium Eagle (BME) agar containing 10% FBS over 3.5 ml 0.5% BME agar medium containing 10% FBS. Gingerol was dissolved in 100% ethanol. Ethanol was used in the control group for comparison. The cultures were maintained in a 37° C., 5% CO2 incubator for 14-21 days and the cell colonies were scored by a computerized program integrated with a light microscope. Human tumor cells were treated in a similar manner but no EGF or TPA was needed.

[2] = system: HCT116 colon cancer cells; test: Soft agar colony formation / human tumor phenotype expression; assay type: cell-based
Procedure: as §1, §2

[3] = system: SK-MEL-28 skin cancer cells; test: as above; assay type: cell-based
Procedure: as §1, §2

[4] = system: HT460 lung cancer cells; test: as above; assay type: cell-based; details: for Effect against human lung cancer cells, colony formation (figure statement, in words): concentration not given
Procedure: as §1, §2

[5] = system: skin cancer induced by UVA exposure in hairless mice; test: UVA-induced skin tumors in SKh-1 hairless mice, topical treatment; assay type: in vivo; details: day 84, 30 micrograms per mouse on tumors, 5 days a week, day 21 to 53
Procedure: Twenty SKh-1 hairless mice were exposed to UVA to induce skin tumor formation. […] Rubescensin J was dissolved in DMSO and then brought up to volume in acetone. The two groups. of mice were treated with rubescensin J in acetone, and acetone alone, respectively. […] Five days a week, each mouse received a total of 30 micrograms applied directly on tumor(s) in a volume of 250 microliters. The compound was made fresh each day. Tumor numbers and sizes were monitored and recorded periodically.
Initial measurements were taken on day 1, 14 and 20, and the first treatment was applied on day 21. The experimental group of mice were treated with the compound 5 days a week until the compound was depleted on day 53. Measurement #1 through to #11 were made on day 14, 20, 24, 28, 32, 36, 39, 43, 51, 53, and 84. The numbers of tumor papillomas and the tumor volumes are expressed as a percentage of the number of papillomas and tumor volume on day 1.

[6] = system: SK-OV-3 ovarian cancer cells; test: Soft agar colony formation / human tumor phenotype expression; assay type: cell-based
Procedure: as §1, §2

[7] = system: JB6 C141 mouse skin cells; test: MTS toxicity (cell proliferation) assay; assay type: cell-based; details: 50 μM
Procedure: as §1, with “For human phenotype expression assays, human colon HCT116, human lung cancer HT460, human skin melanoma SK-MEL-28 or human ovarian SK-OV3 cells were cultured in their respective medium and harvested for soft agar assays.” left out
Cell Proliferation Assay (MTS Assay): Cell proliferation was analyzed using the CELLTITER 96® AQueous One Solution Cell Proliferation Assay (Promega, Madison, Wis.) following the instructions provided. […] Then the absorbance of a colored formazan product catalyzed by dehydrogenase enzymes in metabolically active cells was recorded at 492 nm with 690 nm as a background. Data were expressed as the percentage of absorbance of untreated control cells.

[8] = Homo sapiens, 25 μM, read-out: % Inhibition: HT 460 Lung Cancer

## C=C1[C@@H](O)[C@@]23C(CC[C@@H]1[C@H]2O)[C@]12CCCC(C)(C)C1[C@H](O)[C@]3(O)OC2=O (stereo partly drawn) [Rabdoternin A]
[1]; 25 μM
  Inhibition of neoplastic transformation in JB6 cell (in words): completely inhibits
  Prevention of neoplastic cell transformation, EGF, soft agar (figure statement, in words): prevented neoplastic cell transformation
[1]; Mus musculus, 25 μM
  inhibition at 25 µM: 100%
[2]; 25 μM
  Inhibition of HCT116 colon cancer cell growth (in words): completely inhibited
[2]; Homo sapiens, HCT-116, 25 μM
  inhibition at 25 µM: 100%
[2]; concentration not given
  Decreasing colony formation, human colon cancer cells (figure statement, in words): particularly effective
[3]; 15 μM
  Inhibition of SK-MEL-28 skin cancer cell growth (in words): completely inhibits
[3]; Homo sapiens, SK-MEL-28, 25 μM
  inhibition at 25 µM: 100%
[3]; concentration not given
  Effect against human skin melanoma cells, colony formation (figure statement, in words): particularly effective
[4]; 25 μM
  Inhibition of HT460 lung cancer cell growth (in words): moderately inhibited
[4]; [8]
  inhibition at 25 µM: 10%
[4]
  Effect against human lung cancer cells, colony formation (figure statement, in words): moderate inhibitory effect

## CC1(C)CC[C@H](O)[C@]23CO[C@@](O)([C@@H](O)C12)[C@]12C(=O)[C@@]4(CO4)[C@H](CCC31)[C@H]2O (stereo partly drawn) [Rubescensin J, 1α, 6β, 7β, 14β-tetrohydroxy-7α,20-epoxy-ent-kaur-16,17-exo-epoxide-15-one]
[5]; untreated group about 90%
  Number of tumor papillomas as percentage of the number on day 1: ~50%
[5]; untreated group about 120%
  Tumor volume as percentage of the volume on day 1: about 60%
[1]; 25 μM
  Prevention of neoplastic cell transformation, EGF, soft agar (figure statement, in words): prevented neoplastic cell transformation
[1]; 40 μM
  Inhibition of neoplastic transformation in JB6 cell (in words): completely inhibits
[1]; 20-40 μM
  % Inhibition: Neoplastic Transformation in JB6 Cells: 83-100 (20-40 μM) %
[2]; 10 μM
  Decreasing colony formation, human colon cancer cells (figure statement, in words): particularly effective
[2]; 20 μM
  Inhibition of HCT116 colon cancer cell growth (in words): completely inhibits
[2]; Homo sapiens, HCT-116, 20 μM
  inhibition at 20 µM: 100%
[3]; 20 μM
  Effect against human skin melanoma cells, colony formation (figure statement, in words): particularly effective
  Inhibition of SK-MEL-28 skin cancer cell growth (in words): significantly inhibits
[3]; Homo sapiens, SK-MEL-28, 20 μM
  inhibition at 20 µM: 50%
[4]; 20 μM
  Inhibition of HT460 lung cancer cell growth (in words): moderately inhibits
[4]; Homo sapiens, 20 μM, read-out: % Inhibition: HT 460 Lung Cancer
  inhibition at 20 µM: 20%
[4]
  Effect against human lung cancer cells, colony formation (figure statement, in words): moderate inhibitory effect
[6]; 20 μM
  Inhibition of SK-OV-3 ovarian cancer cell growth (in words): moderately inhibits
[6]; Homo sapiens, SK-OV-3, 20 μM
  inhibition at 20 µM: 15%
[6]; concentration not given
  Effect against human ovarian cancer cells, colony formation (figure statement, in words): moderate inhibitory effect

## Rubescensin M
[1]; 100 μM
  Inhibition of neoplastic transformation in JB6 cell (in words): almost completely inhibits
  Prevention of neoplastic cell transformation, EGF, soft agar (figure statement, in words): prevented neoplastic cell transformation
[1]; text b462: 100 μM
  % Inhibition: Neoplastic Transformation in JB6 Cells: 90%
[2]; 75 μM
  % Inhibition: HCT116 Colon Cancer Cells: 90%
[2]; concentration not given
  Decreasing colony formation, human colon cancer cells (figure statement, in words): particularly effective
[3]; 50 μM
  % Inhibition: SK-MEL-28 Skin Cancer: 100%
  Inhibition of SK-MEL-28 skin cancer cell growth (in words): completely inhibited
[3]; concentration not given
  Effect against human skin melanoma cells, colony formation (figure statement, in words): particularly effective
[4]; 75 μM
  % Inhibition: HT 460 Lung Cancer: 73%
[4]
  Effect against human lung cancer cells, colony formation (figure statement, in words): moderate inhibitory effect

## CC1OC(OC2C(O)C(CO)OC(OCCc3ccc(OC(=O)/C=C/c4ccc(O)c(O)c4)c(O)c3)C2O)C(O)C(O)C1O (stereo not drawn) [Rubscendepside]
[7]
  Toxicity evaluation with MTS assay (in words): no Rubscendepside toxicity
[1]; 25 μM
  Prevention of neoplastic cell transformation, EGF, soft agar (figure statement, in words): prevented neoplastic cell transformation
[1]; 50 μM
  Inhibition of neoplastic transformation in JB6 cell (in words): completely inhibits
[1]; 20-50 μM
  % Inhibition: Neoplastic Transformation in JB6 Cells: 80-100 (20-50 μM) %
[2]; 15 μM
  Inhibition of HCT116 colon cancer cell growth (in words): significantly inhibits
[2]; Homo sapiens, HCT-116, 15 μM
  inhibition at 15 µM: 60%
[2]; concentration not given
  Decreasing colony formation, human colon cancer cells (figure statement, in words): particularly effective
[3]; 25 μM
  Inhibition of SK-MEL-28 skin cancer cell growth (in words): moderately inhibits
[3]; Homo sapiens, SK-MEL-28, 25 μM
  inhibition at 25 µM: 36%
[3]; concentration not given
  Effect against human skin melanoma cells, colony formation (figure statement, in words): moderate inhibitory effect
[4]; 25 μM
  Inhibition of HT460 lung cancer cell growth (in words): moderately inhibits
[4]; [8]
  inhibition at 25 µM: 37%
[4]
  Effect against human lung cancer cells, colony formation (figure statement, in words): moderate inhibitory effect

## C=C1[C@@H](O)[C@@]23C(CC[C@@H]1[C@H]2O)[C@@]12C(=O)O[C@@]3(O)[C@@H](O)C1C(C)(C)CC[C@@H]2O (stereo partly drawn) [Rabdoternin B]
[1]; 75 μM
  Inhibition of neoplastic transformation in JB6 cell (in words): completely inhibits
  Prevention of neoplastic cell transformation, EGF, soft agar (figure statement, in words): prevented neoplastic cell transformation
[1]; Mus musculus, 75 μM
  inhibition at 75 µM: 100%
[2]; 50 μM
  Inhibition of HCT116 colon cancer cell growth (in words): completely inhibited
[2]; Homo sapiens, HCT-116, 50 μM
  inhibition at 50 µM: 100%
[2]; concentration not given
  Decreasing colony formation, human colon cancer cells (figure statement, in words): particularly effective
[3]; Homo sapiens, SK-MEL-28, 35 μM
  inhibition at 35 µM: 0%
[4]; Homo sapiens, 35 μM, read-out: % Inhibition: HT 460 Lung Cancer
  inhibition at 35 µM: 0%

## C=C1[C@@H](OC(C)=O)[C@]23[C@H](O)[C@H]1CC[C@H]2[C@]12CCCC(C)(C)[C@H]1[C@H](OC(C)=O)[C@]3(O)OC2 [Rabdoternin C]
[1]; 10 μM
  Prevention of neoplastic cell transformation, EGF, soft agar (FIG. 21): 50%
[1]; 100 μM
  Inhibition of neoplastic transformation in JB6 cell (in words): completely inhibits
[1]; text b465: 50% at 10 μM
  % Inhibition: Neoplastic Transformation in JB6 Cells: 50%
[2]; 100 μM
  % Inhibition: HCT116 Colon Cancer Cells: 68%
  Inhibition of HCT116 colon cancer cell growth (in words): significantly inhibited
[2]; concentration not given
  Decreasing colony formation, human colon cancer cells (figure statement, in words): particularly effective
[3]; 100 μM
  % Inhibition: SK-MEL-28 Skin Cancer: 5-10%
  Inhibition of SK-MEL-28 skin cancer cell growth (in words): moderately inhibited
[3]; concentration not given
  Effect against human skin melanoma cells, colony formation (figure statement, in words): some inhibitory effect
[4]; 100 μM
  % Inhibition: HT 460 Lung Cancer: 14%
  Inhibition of HT460 lung cancer cell growth (in words): moderately inhibited
[4]
  Effect against human lung cancer cells, colony formation (figure statement, in words): some inhibitory effect
